From patent US20180037605A1, “SYNTHETIC PEPTIDES AND ENZYMATIC FORMATION OF INTRACELLULAR HYDROGELS” (BRANDEIS UNIVERSITY, priority 2015, published 2018)
≈ marks a conversion by molar mass, not a printed value. Where two headings read alike, the source gives them in different places.

What was measured:
HeLa cells [1] = system: HeLa cells
Protocol: The HeLa cell line CCL-2™ was purchased from the American Type Culture Collection (ATCC, Manassas, Va., USA).
The following formula was used to calculate the intracellular concentration of the peptides.
Intracellular concentration=(c*300 uL)/(cell number*4*10^−9 cm^3)
where c=(fluorescence−15406.76945)/74174.36908. An average size for the common cells used in cell culture (HeLa) is 15-20 microns in diameter for a suspended cell (volume 4/3πr^3=4000 μm^3 or 4×10^−9 cm^3) (Moran et al., Cell 141:1262 (2010), which is hereby incorporated by reference in its entirety). Methanol was used to break the cell membrane and fully dissolve compounds 1-t, 2-t, and 3.
To quantify the intracellular concentration of the D-peptide derivatives, the procedure illustrated in FIG. 9A was used to determine the cellular uptake of 1-t, 1, and 2-t after treating HeLa cells with these molecules, respectively. […] The “uptake concentration (Cu)” of 1-t or 1 is the sum of 3 and 1-t (or 1) inside the cells.

esterase = experiment: Esterase-catalysed conversion of 1-t to 3 (analytical HPLC); format: biochemical, porcine
[2] = 1.0 wt %, pH 7.4
Protocol: Peptides 1-t/1 were dissolved into distilled water, and the pH of the solution was adjusted carefully by adding 1M NaOH, and this was monitored with pH paper. After the pH of the solution reached 7.4, extra distilled water was added to make the final concentration, followed by the addition of esterase to induce enzymatic gelation.
To elucidate the enzyme-catalyzed self-assembly to form supramolecular nanofibrils inside cells after cellular uptake illustrated in FIG. 2A, the enzymatic transformation of 1-t (or 1) to 3 and the subsequent self-assembly of 3 at the concentration of 1.0 wt % was first examined. To study the enzymatic hydrogelation process of 1-t, analytical HPLC was used to evaluate the rate of enzymatic transformation and transmission electron microscopy (TEM) to examine the self-assembly.

HS-5 cells [3] = experiment: MTT cell viability, HS-5 stromal cells
Protocol: (§1) The cells were seeded in exponential growth phase in a 96 well plate at a concentration of 1×10^4 cell/well with 100 μL of culture medium. Cells were allowed to attach for 24 hours at 37° C., 5% CO2 and then the culture medium was removed with the help of vacuum pump. Culture medium containing the precursors in gradient concentrations was added to each well (0 μM as control). 10 μL of 5 mg/mL MTT ((3-(4,5-Dimethylthiazol-2-yl)-2,5-diphenyltetrazolium bromide) was added to each well after 24 hours, 48 hours, and 72 hours incubation. After 4 hours incubation of the plated cells in dark place, 100 μL 10% SDS with 0.01 M HCl was added to each well to dissolve the purple formazan and to stop the reduction reaction. 24 hours later, the absorbance of the solution at 595 nm was finally measured with a DTX 880 Multimode Detector.

PC-12 cells [4] = settings: literature (Mendonca et al.); cited from earlier work
HS-5 cells [5] = settings: literature (Mendonca et al.); cited from earlier work
SKOV3 cells [6] = system: SKOV3 cells
Protocol: SKOV3 cells were seeded in exponential growth phase in a 96 well plate at a concentration of 1×10^4 cell/well with 100 μL of McCoy's 5A medium modified supplemented with 10% fetal bovine serum (FBS), 100 U/mL penicillin and 100 μg/ml streptomycin. The cells were allowed to attach to the wells for 24 hours at 37° C., 5% CO2. The culture medium was removed and 100 μL culture medium containing compounds (immediately diluted from fresh prepared stock solution of 10 mM) at gradient concentrations (0 μM as the control) was placed into each well. McCoy's 5A medium modified was regarded as blank. After culturing at 37° C., 5% CO2 for 24 hours, 48 hours, and 72 hours, 10 μL of 5 mg/mL MTT (3-(4,5-Dimethylthiazol-2-yl)-2,5-diphenyltetrazolium bromide) was added to each well, and the plated cells were incubated in dark place for 4 hours. 100 μL 10% SDS with 0.01 M HCl was added to each well to stop the reduction reaction and to dissolve the purple formazan. After incubation of the cells at 37° C. for overnight, the OD at 595 nm of the solution was measured in a microplate reader.
as §1

SKOV3 cells [7] = settings: read-out: IC50 of cisplatin; literature value (Oumzil et al.) used as comparison for SKOV3 inhibition; cited from earlier work
HeLa cells [8] = settings: 200 μM, 24 hours
MCF-7 cells = experiment: MTT cell viability, MCF-7; format: cell-based; settings: third day (72 h)
Protocol: as §1

T98G cells = experiment: MTT cell viability, T98G; format: cell-based
Protocol: as §1

HeLa cells [9] = experiment: MTT cell viability, HeLa; format: cell-based; settings: third day (72 h)
Protocol: D-7 and D-10 (FIG. 12A), the enantiomers of L-7 and L-10, were prepared as described in Example 3. HeLa and SKOV3 cells were used in an MTT assay for assessing cytotoxicity of the peptides against these cancer cell lines.

Saos-2 cells = experiment: MTT cell viability, Saos-2; format: cell-based; settings: third day (72 h)
Protocol: as §1

A375 cells = experiment: MTT cell viability, A375; format: cell-based; settings: third day (72 h)
Protocol: as §1

HepG2 cells = experiment: MTT cell viability, HepG2; format: cell-based; settings: third day (72 h)
Protocol: as §1

MES-SA cells = experiment: MTT cell viability, MES-SA; format: cell-based; settings: third day (72 h)
Protocol: as §1

in vitro = settings: human
Protocol: as §1

PC-12 cells [10] = experiment: MTT cell viability, PC-12 neuronal cells; format: cell-based, rat
Protocol: as §1

SKOV3 cells [11] = experiment: LC-MS of cell lysates and culture medium, SKOV3; format: cell-based
Protocol: After confirming that CES converts the precursor L-10 or D-10 into the hydrogelator L-12 or D-12, the stability of the precursors (L-10 or D-10) when incubated with the ovarian cancer cells was determined. After culturing the precursors with SKOV3 or A2780cis cells at 37° C. for 4 hours, the cell lysates and culture medium were collected for liquid chromatography-mass spectrometry (LC-MS) analysis and the intracellular concentrations of the precursors, the hydrogelators, and the relevant proteolyzed products were determined. After incubation with SKOV3 or A2780cis cells for 4 hours, more than 85% of the precursors (L-10 or D-10) turned into the corresponding hydrogelators (L-12 or D-12; see Table 1 below).

A2780 cells = experiment: MTT cell viability, A2780; format: cell-based; settings: third day (72 h)
HCC1937 cells = experiment: MTT cell viability, HCC1937; format: cell-based; settings: third day (72 h)
MES-SA/D×5 cells = experiment: MTT cell viability, MES-SA/D×5; format: cell-based; settings: third day (72 h)
Protocol: as §1

U87MG cells = experiment: MTT cell viability, U87MG; format: cell-based
Protocol: as §1

HS-5 cells [12] = settings: 72 h
Protocol: as §1

[13] = Systemic toxicity after intravenous injection in mice; settings: 5 to 20 mg/kg, after 7 days
[14] = system: co-cultured HS-5 and A2780cis cells; experiment: Cell viability of co-cultured HS-5 and A2780cis cells; format: cell-based; settings: L-10 73 μg/mL, third day
Protocol: 5×10^3 of SKOV3 cells (or A2780cis) and 5×10^3 HS-5 cells per well were seeded together and co-cultured in DMEM medium. Based on the results in FIG. 22, the concentrations of L-10 and D-10 at 73 and 37 μg/mL, respectively, were chosen. […] The inhibitory activities of L-10 and D-10 towards the co-culture agree well with their cytotoxicity against A2780cis, SKOV3, and H-5 cells. […] For example, on the first day, the cell viabilities of co-cultured HS-5 and SKOV3 cells and co-cultured HS-5 and A2780cis cells treated by D-10 (37 μg/mL) were 79% and 80%, respectively. While on the third day, the cell viabilities dropped to 44% and 57%, respectively. […] Contrary to the case of D-10, the efficacies of L-10 were almost the same between day two and day three (FIG. 25A), which agreed with the lower in vivo stability of L-10 than that of D-10.

[15] = 200 μM in culture medium, 24 hours
[16] = SKOV3 cell lysates, 4 hours, 37° C., 20 μm D-10 or 50 μm L-10

## O=C(CCC(=O)OCCNC(=O)[C@@H](Cc1ccccc1)NC(=O)[C@@H](Cc1ccccc1)NC(=O)CCNc1ccc([N+](=O)[O-])c2nonc12)NCCS(=O)(=O)O [1-t]
HeLa cells [1]; 50 μM, 24 hours
  enhancement of cellular uptake compared with incubation concentration: about 3 fold
HeLa cells [1]; [15]
  uptake concentration (Cu) / intracellular concentration: 1.6 mM
HeLa cells [1]; 200 μM, 24 hour incubation
  intracellular concentration after washing five times with PBS buffer: 1.4 mM
HeLa cells [1]; 200 μM, 24 hours
  uptake concentration relative to incubation (extracellular) concentration: 8 fold
HeLa cells [1]; 200 μM, 48 hours
  Cu: 2.4 mM
  enhancement of cellular uptake compared with incubation concentration: 12 fold
HeLa cells [1]; 500 μM, 24 hours
  enhancement of cellular uptake compared with incubation concentration: ~4.5 fold
HeLa cells [1]; incubation medium 25 μM, 24 hours
  intracellular concentration: 28 µM
esterase; 1-t 100 μM, esterase 1 U/mL, 24 hours
  1-t converted to 3 (HPLC): more than 50%
esterase; pig, esterase from porcine liver, pH 7.4, 1-t 1.0 wt %, esterase 1 U/ml, 24 hours, read-out: 1-t converted to 3 (HPLC)
  metabolised at 24 h, 1 wt %: ~11%
esterase; pig, esterase from porcine liver, 1-t 1.0 wt %, pH 7.4, esterase 1 U/ml, 1 min, read-out: 1-t converted to 3 (analytical HPLC)
  metabolised at 1 min, 1 wt %: 2.5%
[2]
  solubility: significantly enhanced the solubility

## N.N.[Cl][Pt][Cl] [cisplatin, reference compound]
HS-5 cells [3]; 37 μg/mL, third day
  HS-5 cells killed / inhibited: ~100%
A2780cis cells; 37 μg/mL, third day
  inhibition of A2780cis cells: about 98%
PC-12 cells [4]
  inhibition of PC-12 cells: significantly inhibiting
HS-5 cells [5]
  inhibition of HS-5 cells: significantly inhibiting
SKOV3 cells [6]; 37 μg/mL, third day
  inhibition of SKOV3 cells: 90%
SKOV3 cells [6]; CP 6 μg/mL alone, 72 hours
  inhibition of SKOV3 cells: 48%
SKOV3 cells [6]; CP 6 μg/mL alone, 72 hours (control compound experiment)
  cell death of SKOV3 cells: about 40%
SKOV3 cells [7]
  IC50: 35 µM

## O=C(O)CCC(=O)OCCNC(=O)[C@@H](Cc1ccccc1)NC(=O)[C@@H](Cc1ccccc1)NC(=O)CCNc1ccc([N+](=O)[O-])c2nonc12 [compound 1]
HeLa cells [1]; [15]
  uptake concentration (Cu) / intracellular concentration: hardly detected
[2]
  solubility: less soluble than 1-t

## O=C(CCC(=O)NCCS(=O)(=O)O)NCCNC(=O)[C@@H](Cc1ccccc1)NC(=O)[C@@H](Cc1ccccc1)NC(=O)CCNc1ccc([N+](=O)[O-])c2nonc12 [2-t]
HeLa cells [1]; [15]
  Cu: 0.8 mM
  uptake concentration (Cu) / intracellular concentration: 0.8 mM
HeLa cells [1]; 200 μM, 24 hour incubation
  intracellular concentration after first wash: 0.6 mM
  intracellular concentration after washing five times with PBS buffer: 0.08 mM
HeLa cells [1]; 200 μM, 24 hour incubation, PBS wash
  decrease of intracellular concentration by each wash: about 25%
HeLa cells [1]; 200 μM, 24 hours
  uptake concentration relative to incubation (extracellular) concentration: 4 fold
HeLa cells [8]
  stability inside cells: remained intact inside cells

## O=C(CCC(=O)OCCNC(=O)[C@H](Cc1ccccc1)NC(=O)[C@H](Cc1ccccc1)NC(=O)Cc1ccc2ccccc2c1)NCCS(=O)(=O)O [L-10]
MCF-7 cells
  IC50, MCF-7: 28 µg/mL (≈ 38.3 µM)
T98G cells; 365 μg/mL of L-10
  cell viability of T98G: ~60%
T98G cells; at or below 146 μg/mL, 72 h
  cytotoxicity toward T98G: little cytotoxicity
HS-5 cells [3]; 20 μM (D-10) and 50 μM (L-10)
  inhibition of HS-5 cells: hardly inhibited
A2780cis cells; third day (72 h)
  IC50, A2780cis: 39 µg/mL (≈ 53.4 µM)
HeLa cells [9]
  IC50, HeLa: 53 µg/mL (≈ 72.5 µM)
Saos-2 cells
  IC50, Saos-2: 80 µg/mL (≈ 109 µM)
A375 cells
  IC50, A375: 94 µg/mL (≈ 129 µM)
HepG2 cells
  IC50, HepG2: 97 µg/mL (≈ 133 µM)
MES-SA cells
  IC50, MES-SA: 40 µg/mL (≈ 54.7 µM)
In vitro
  viability at 3 day, 73 μg/mL: ~80%
PC-12 cells [10]; 20 μM (D-10) and 50 μM (L-10)
  inhibition of PC-12 cells: hardly inhibited
PC-12 cells [10]; third day (72 h)
  IC50, PC-12: above 73 μg/mL
SKOV3 cells [11]; 4 hours incubation
  cumulative intracellular concentration of precursor and hydrogelator relative to incubation concentration: about 10 fold
SKOV3 cells [11]; SKOV3 cell lysates, 20 μm D-10 or 50 μm L-10
  Ratio of hydrogelator to precursor after 4 hours: 6.95
SKOV3 cells [11]; [16]
  Hydrogelator (12) intracellular concentration: 431 μm
  Precursor (10) intracellular concentration: 62 μm
A2780 cells
  IC50, A2780: 49 µg/mL (≈ 67 µM)
HCC1937 cells
  IC50, HCC1937: 29 µg/mL (≈ 39.7 µM)
MES-SA/D×5 cells
  IC50, MES-SA/D×5: 322 µg/mL (≈ 441 µM)
U87MG cells; 365 μg/mL of L-10
  cell viability of U87MG: about 70%
U87MG cells; at or below 146 μg/mL, 72 h
  cytotoxicity toward U87MG: little cytotoxicity
SKOV3 cells [6]; 72 h
  IC50, SKOV3: 46 µg/mL (≈ 62.9 µM)
SKOV3 cells [6]; 72 h, 37 μg/mL
  inhibition of SKOV3 cells by mixture with CP: ~87%
HS-5 cells [12]
  IC50, HS-5: above 73 μg/mL
[13]
  effect on weight and organ index of mice: hardly affected
[14]
  inhibition of co-cultured HS-5 and A2780cis cells: about 57%
